Assay results from patent US20240299304A1, “A METHOD FOR THE PRODUCTION OF GASTRORETENTIVE COMPACT MATRICES FOR THE CONTROLLED RELEASE OF ACTIVE SUBSTANCES AND COMPACT MATRICES THUS OBTAINED” (UNIVERSITA DEGLI STUDI DI GENOVA, priority 2021, published 2024).

Assay: pH in water of pH regulators before and after heat treatment
Type: physicochemical
Conditions: for pH in water after heat treatment: after heat treatment at 150° C. for 15 min

Row | Structure (SMILES) | pH in water after heat treatment | pH in water before heat treatment
1 | O=C([O-])[O-].[Mg+2] [MgCO3] | 7 | 6
2 | O=C([O-])[O-].[Na+].[Na+] [Na2CO3, sodium carbonate] | 10 | 10
3 | O=P([O-])([O-])O.[Na+].[Na+] [Na2HPO4 2H2O, disodium hydrogen phosphate] | 6 | 6
4 | O.O.O.O.O.O.O.O.O.O.O.O.O=P([O-])([O-])[O-].[Na+].[Na+].[Na+] [Na3PO4 12H2O] | 10 | 10
5 | O=C([O-])O.[Na+] [NaHCO3, sodium bicarbonate] | 10 | 7
